Series [1] is described as follows: Stability experiment (75% RH, 92.5% RH, 40° C., 60° C. and light for 10 days; XRPD pattern and purity). In kind it is physicochemical. Particulars: for stability (in words): 60° C. and light for 10 days. The procedure:
X-ray powder diffraction instrument and test conditions involved in the present disclosure: the model of the X-ray diffraction instrument was Rigaku D/max-2200 Cu target; the operation method included a scanning speed of 10°/min and scanning step width of 0.01°.
High-performance liquid chromatography (HPLC) test conditions involved in the present disclosure: the model of the liquid chromatograph was Agilent 1260; the chromatographic column was Agilent Eclipse XDB C-18 250 mm*4.6 mm Sum; the detection wavelength was 280 nm; and the column temperature was 35° C.
The amorphous form of compound of formula I prepared in Preparation Example, the crystal form A of the compound of formula I prepared in Example 1, the crystal form B of the compound of formula I prepared in Example 7, and the crystal form C of the compound of formula I prepared in Example 11 were placed in 75% RH, 92.5% RH, 40° C., 60° C. and light for 10 days respectively, and the X-ray powder diffraction pattern and purity of each crystal form were measured.

Series [2] in a line: Granularity experiment. The series is classed as physicochemical. The procedure:
The amorphous form of compound of formula I prepared in Preparation Example, the crystal form A of the compound of formula I prepared in Example 1, the crystal form B of the compound of formula I prepared in Example 7, and the crystal form C of the compound of formula I prepared in Example 11 were measured for granularity, and the specific results are shown in the following table: […]

Series [3] is described as follows: Flowability test (angle of repose). The series is classed as physicochemical. The procedure:
The amorphous form of compound of formula I prepared in Preparation Example, the crystal form A of the compound of formula I prepared in Example 1, the crystal form B of the compound of formula I prepared in Example 7, and the crystal form C of the compound of formula I prepared in Example 11 were measured for angle of repose, and the specific results are shown in the following table: […]

The target of series [4] is T1, ERα (Homo sapiens, UniProt P03372).
T1 sequence (P03372 1-595): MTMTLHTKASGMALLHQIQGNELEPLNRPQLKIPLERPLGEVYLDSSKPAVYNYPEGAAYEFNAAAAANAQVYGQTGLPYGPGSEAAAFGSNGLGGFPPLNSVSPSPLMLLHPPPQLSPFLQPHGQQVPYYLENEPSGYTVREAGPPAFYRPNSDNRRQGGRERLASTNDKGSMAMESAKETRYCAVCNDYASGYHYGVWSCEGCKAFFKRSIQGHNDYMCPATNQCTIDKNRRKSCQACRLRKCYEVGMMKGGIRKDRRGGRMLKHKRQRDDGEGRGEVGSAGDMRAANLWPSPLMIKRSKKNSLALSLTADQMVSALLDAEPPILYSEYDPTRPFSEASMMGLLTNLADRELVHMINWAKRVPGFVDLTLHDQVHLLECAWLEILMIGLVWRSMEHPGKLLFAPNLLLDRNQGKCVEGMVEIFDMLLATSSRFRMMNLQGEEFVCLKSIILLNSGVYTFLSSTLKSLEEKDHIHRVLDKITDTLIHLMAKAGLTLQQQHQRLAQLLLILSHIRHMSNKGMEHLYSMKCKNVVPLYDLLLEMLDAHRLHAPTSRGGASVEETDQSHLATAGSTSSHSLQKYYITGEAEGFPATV
Particulars: as indicated in WO2017080338A1; cited from earlier work.

Where [5] appears, read: compared with crystal forms A, B and C.

For `C[C@@H]1Cc2c([nH]c3ccccc23)[C@@H](c2c(F)cc(/C=C/C(=O)O)cc2F)N1CC1(F)CC1` [amorphous form, (E)-3-(3,5-difluoro-4-((1R,3R)-2-((1-fluorocyclopropyl)methyl)-3-methyl-2,3,4,9-tetrahydro-1H-pyrido[3,4-b]indol-1-yl)phenyl)acrylic acid], the Purity % in series [1] (0 day) came to 95.82%; in series [1] (40° C., 10 days), 95.80%; in series [1] (60° C., 10 days) it was 95.67%; in series [1] (75% RH, 10 days), 96.22%; in series [1] (92.5% RH, 10 days), 96.57%; in series [1] (Light, 10 days) it was 95.55%. Moreover, in series [2] (setting [5]), the “granularity (in words)” value is “significantly smaller than that of the crystal forms A, B, and C”. In series [2] (granularity), this molecule registered a D50 of 3.02 μm. For the same molecule, the granularity in series [2] (granularity, second column under amorphous form) came out at 23.01 μm. The “angle of repose (in words)” value in series [3] (setting [5]) is “significantly larger than that of the crystal forms A, B and C”. The angle of repose in series [3] (measurement 1) is recorded as 43.2°; in series [3] (measurement 2), 41.9°; in series [3] (measurement 3), 42.5°.
Regarding `C[C@@H]1Cc2c([nH]c3ccccc23)[C@@H](c2c(F)cc(/C=C/C(=O)O)cc2F)N1CC1(F)CC1` [compound of formula I, (E)-3-(3,5-difluoro-4-((1R,3R)-2-((1-fluorocyclopropyl)methyl)-3-methyl-2,3,4,9-tetrahydro-1H-pyrido[3,4-b]indol-1-yl)phenyl)acrylic acid], the “effect of down-regulating ERα” value in series [4] is listed as “good effect of down-regulating ERα”.
For `C[C@@H]1Cc2c([nH]c3ccccc23)[C@@H](c2c(F)cc(/C=C/C(=O)O)cc2F)N1CC1(F)CC1` [crystal form A, (E)-3-(3,5-difluoro-4-((1R,3R)-2-((1-fluorocyclopropyl)methyl)-3-methyl-2,3,4,9-tetrahydro-1H-pyrido[3,4-b]indol-1-yl)phenyl)acrylic acid], the Purity % in series [1] (0 day) is 99.33%; in series [1] (40° C., 10 days), 99.27%; in series [1] (60° C., 10 days), 99.22%; in series [1] (75% RH, 10 days), 99.31%; in series [1] (92.5% RH, 10 days) it was 99.34%; in series [1] (Light, 10 days) it was 99.27%. In addition, in series [1] (75% RH, 92.5% RH, 40° C.), the “stability (in words)” value was “good stability”. Besides, the D50 in series [2] (granularity) is 16.37 μm. The molecule also displayed a D90 in series [2] (granularity) of 61.86 μm. In addition, the figures for the angle of repose in series [3] (measurement 1), in series [3] (measurement 2) and in series [3] (measurement 3) were 30.6°, 29.6° and 30.5°, respectively.
For the molecule `C[C@@H]1Cc2c([nH]c3ccccc23)[C@@H](c2c(F)cc(/C=C/C(=O)O)cc2F)N1CC1(F)CC1` [crystal form B, (E)-3-(3,5-difluoro-4-((1R,3R)-2-((1-fluorocyclopropyl)methyl)-3-methyl-2,3,4,9-tetrahydro-1H-pyrido[3,4-b]indol-1-yl)phenyl)acrylic acid], the Purity % is listed as 99.87% in series [1] (0 day); 99.77% in series [1] (40° C., 10 days); 99.75% in series [1] (60° C., 10 days); 99.81% in series [1] (75% RH, 10 days); 99.81% in series [1] (92.5% RH, 10 days); 99.68% in series [1] (Light, 10 days). Besides, in series [1] (75% RH, 92.5% RH, 40° C.), the “stability (in words)” value was “good stability”. This molecule also showed a D50 in series [2] (granularity) of 15.48 μm. This molecule also registered a D90 in series [2] (granularity) of 60.79 μm. The figures for the angle of repose in series [3] (measurement 1), in series [3] (measurement 2) and in series [3] (measurement 3) were 32.5°, 31.3° and 32.3°, respectively.
For `C[C@@H]1Cc2c([nH]c3ccccc23)[C@@H](c2c(F)cc(/C=C/C(=O)O)cc2F)N1CC1(F)CC1` [crystal form C, (E)-3-(3,5-difluoro-4-((1R,3R)-2-((1-fluorocyclopropyl)methyl)-3-methyl-2,3,4,9-tetrahydro-1H-pyrido[3,4-b]indol-1-yl)phenyl)acrylic acid], the Purity % was 99.78% in series [1] (0 day); 99.80% in series [1] (40° C., 10 days); 99.84% in series [1] (60° C., 10 days); 99.79% in series [1] (75% RH, 10 days); 99.78% in series [1] (92.5% RH, 10 days); 99.71% in series [1] (Light, 10 days). The “stability (in words)” value in series [1] (75% RH, 92.5% RH, 40° C.) was “good stability”. The molecule further had a D50 in series [2] (granularity) of 15.02 μm. In series [2] (granularity), this molecule had a D90 of 59.88 μm. The angle of repose stood at 31.5° in series [3] (measurement 1), 31.8° in series [3] (measurement 2) and 30.9° in series [3] (measurement 3).
